According to patent publication US6444688B1, “Compounds and compositions with nitrogen-containing non-basic side chains” (Eli Lilly and Company, priority 1995, dated 2002):
pEC50: −log10 of the molar value. Where “and” joins values, the source holds several entries; their conditions need not be identical. Identical values can stand only once. Marks after values point to notes of the source that are not given here.

What was measured:
[1] = test system: ovariectomized (OVX) rats; experiment: Four day dosing regimen, post-menopausal rat model: wet uterine weight; format: in vivo, Sprague Dawley rats; details: for Uterine Weight (% inc. OVX): OVX rats, oral, daily for 4 days
Procedure: (§1) Animals were dosed daily for 4 days. […] A blood sample was collected by cardiac puncture.

[2] = test system: uterine eosinophil peroxidase activity; experiment: Uterine eosinophil peroxidase (EPO) assay, four day dosing; format: in vivo, Sprague Dawley rats; details: for Uterine EPO (Vmax): OVX rats, oral, daily for 4 days
Procedure: as §1

[3] = test system: ovariectomized (OVX) rats; experiment: Serum cholesterol analysis, four day dosing; format: in vivo, Sprague Dawley rats
Procedure: as §1
Blood samples were allowed to clot at room temperature for 2 hours, and serum was obtained following centrifugation for 10 minutes at 3000 rpm. Serum cholesterol was determined using a Boehringer Mannheim Diagnostics high performance cholesterol assay. Briefly the cholesterol was oxidized to cholest-4-en-3-one and hydrogen peroxide. The hydrogen peroxide was then reacted with phenol and 4-aminophenazone in the presence of peroxidase to produce a p-quinone imine dye, which was read spectrophotemetrically at 500 nm. Cholesterol concentration was then calculated against a standard curve. The entire assay was automated using a Biomek Automated Workstation.

[4] = test system: MCF-7 breast adenocarcinoma cells; experiment: MCF-7 proliferation assay (tritiated thymidine); format: cell-based; details: Homo sapiens, MCF7; MCF-7 cells, 48 hours with drug, tritiated thymidine pulse 4 hours; read-out: ED50 (the source's name)
Procedure: MCF-7 breast adenocarcinoma cells (ATCC HTB 22) were maintained in MEM (minimal essential medium, phenol red-free, Sigma, St. Louis, Mo.) supplemented with 10% fetal bovine serum (FBS) (V/V), L-glutamine (2 mM), sodium pyruvate (1 mM), HEPES {(N-[2-hydroxyethyl]piperazine-N′-[2-ethanesulfonic acid]10 mM}, non-essential amino acids and bovine insulin (1 μg/ml) (maintenance medium). Ten days prior to assay, MCF-7 cells were switched to maintenance medium supplemented with 10% dextrancoated charcoal stripped fetal bovine serum (DCC-FBS) assay medium) in place of 10% FBS to deplete internal stores of steroids. MCF-7 cells were removed from maintenance flasks using cell dissociation medium (Ca++/Mg++ free HBSS (phenol red-free) supplemented with 10 mM HEPES and 2 mM EDTA). Cells were washed twice with assay medium and adjusted to 80,000 cells/ml. Approximately […] (8,000 cells) were added to flat-bottom microculture wells (Costar 3596) and incubated at 37° C. in a 5% CO2 humidified incubator for 48 hours to allow for cell adherence and equilibration after transfer. Serial dilutions of drugs or DMSO as a diluent control were prepared in assay medium and […] to triplicate microcultures followed by […] assay medium for a final volume of […]. […] Samples were counted by liquid scintillation. […]

[5] = test system: ovariectomized (OVX) rats; experiment: Thirty-five day dosing regimen: bone density assay (tibia, single photon absorptiometry); format: in vivo, Sprague Dawley rats; details: oral in 20% hydroxypropyl β-cyclodextrin, daily for 35 days
Procedure: Following the General Preparation procedure described above, the rats were treated daily for 35 days (6 rats per treatment group) and sacrificed by decapitation on the 36th day. The 35 day time period was sufficient to allow maximal effect on bone density, measured as described herein. At the time of sacrifice, the uteri were removed, dissected free of extraneous tissue, and the fluid contents were expelled before determination of wet weight in order to confirm estrogen deficiency associated with complete ovariectomy. […] The uteri were then placed in 10% neutral buffered formalin to allow for subsequent histological analysis. The right tibias were excised and scanned at the distal metaphysis 1 mm from the patellar groove with single photon absorptiometry. Results of the densitometer measurements represent a calculation of bone density as a function of the bone mineral content and bone width. In accordance with the procedures outlined above, compounds of the present invention and EE2 in 20% hydroxypropyl β-cyclodextrin were orally administered to test animals.

[6] = Rattus norvegicus, po, 96 h, OVX rats, oral, daily for 4 days, read-out: Serum Cholesterol (% dec. OVX)

CC(=O)NCCOc1ccc(C(=O)c2c(-c3ccc(O)cc3)sc3cc(O)ccc23)cc1 [Compound 26]
Uterine Weight (% inc. OVX) ([1]; dose 0.1 mg/kg): −17.5 % inc. OVX | Uterine Weight (% inc. OVX) ([1]; dose 1 mg/kg): −28.8* % inc. OVX | Uterine Weight (% inc. OVX) ([1]; dose 10 mg/kg): 25.8* % inc. OVX | Uterine EPO (Vmax) ([2]; dose 0.1 mg/kg): 1.3 Vmax | Uterine EPO (Vmax) ([2]; dose 1 mg/kg): 0.7 Vmax | Uterine EPO (Vmax) ([2]; dose 10 mg/kg): 13.6 Vmax | inhibition in vivo at 1 mg/kg [3, 6]: 19% | inhibition in vivo at 10 mg/kg [3, 6]: 32.8%

COc1ccc(-c2sc3cc(OC)ccc3c2C(=O)c2ccc(OCC(=O)N3CCCCC3)cc2)cc1 [Compound 7]
Uterine Weight (% inc. OVX) ([1]; dose 0.1 mg/kg): −0.5 % inc. OVX | Uterine Weight (% inc. OVX) ([1]; dose 1 mg/kg): −16.2 % inc. OVX | Uterine Weight (% inc. OVX) ([1]; dose 10 mg/kg): 8.4 % inc. OVX | Uterine EPO (Vmax) ([2]; dose 0.1 mg/kg): 5.2 Vmax | Uterine EPO (Vmax) ([2]; dose 1 mg/kg): 3.7 Vmax | Uterine EPO (Vmax) ([2]; dose 10 mg/kg): 4.7 Vmax | inhibition in vivo at 0.1 mg/kg [3, 6]: 3.4% | inhibition in vivo at 1 mg/kg [3, 6]: 14.6% | inhibition in vivo at 10 mg/kg [3, 6]: -41.9% | pEC50 [4]: < 6.00

O=C(c1ccc(OCC(=O)N2CCCC2)cc1)c1c(-c2ccc(O)cc2)sc2cc(O)ccc12 [Compound 8]
Uterine Weight (% inc. OVX) ([1]; dose 0.01 mg/kg): −22.9 % inc. OVX | Uterine EPO (Vmax) ([2]; dose 0.01 mg/kg): 3.5 Vmax | Uterine EPO (Vmax) ([2]; dose 0.1 mg/kg): 3.6 Vmax and 4.4 Vmax | Uterine EPO (Vmax) ([2]; dose 1 mg/kg): 6.1 Vmax and 3.7 Vmax | inhibition in vivo at 0.01 mg/kg ([3]; Rattus norvegicus, po, 96 h, OVX rats, oral, daily for 4 days, dose 0.01 mg/kg, read-out: Serum Cholesterol (% dec. OVX)): 27.2% | inhibition in vivo at 0.1 mg/kg [3, 6]: 17.4% | inhibition in vivo at 10 mg/kg [3, 6]: 70.3%

CC(=O)N(CCOc1ccc(C(=O)c2c(-c3ccc(O)cc3)sc3cc(O)ccc23)cc1)C1CCCCC1 [Compound 19]
Uterine Weight (% inc. OVX) ([1]; dose 0.1 mg/kg): 7 % inc. OVX | Uterine Weight (% inc. OVX) ([1]; dose 1 mg/kg): −25.5* % inc. OVX | Uterine Weight (% inc. OVX) ([1]; dose 10 mg/kg): 47.0* % inc. OVX | Uterine EPO (Vmax) ([2]; dose 0.1 mg/kg): 5.4 Vmax | Uterine EPO (Vmax) ([2]; dose 1 mg/kg): 3.7 Vmax | Uterine EPO (Vmax) ([2]; dose 10 mg/kg): 29.3* Vmax | inhibition in vivo at 1 mg/kg [3, 6]: 20.1% | inhibition in vivo at 10 mg/kg [3, 6]: 52.2%

N#CCOc1ccc(C(=O)c2c(-c3ccc(O)cc3)sc3cc(O)ccc23)cc1 [Compound 14]
Uterine Weight (% inc. OVX) ([1]; dose 0.1 mg/kg): 18.8 % inc. OVX | Uterine Weight (% inc. OVX) ([1]; dose 1 mg/kg): 14.6 % inc. OVX | Uterine Weight (% inc. OVX) ([1]; dose 10 mg/kg): 124.6* % inc. OVX | Uterine EPO (Vmax) ([2]; dose 0.1 mg/kg): 3.3 Vmax | Uterine EPO (Vmax) ([2]; dose 1 mg/kg): 2.4 Vmax | Uterine EPO (Vmax) ([2]; dose 10 mg/kg): 145.8* Vmax | inhibition in vivo at 10 mg/kg [3, 6]: 91.1%

O=C(c1ccc(OCCNC(=O)C2CCCCC2)cc1)c1c(-c2ccc(O)cc2)sc2cc(O)ccc12 [Compound 21]
Uterine Weight (% inc. OVX) ([1]; dose 0.1 mg/kg): −5.5 % inc. OVX | Uterine Weight (% inc. OVX) ([1]; dose 1 mg/kg): −11.5 % inc. OVX | Uterine Weight (% inc. OVX) ([1]; dose 10 mg/kg): 8.6 % inc. OVX | Uterine EPO (Vmax) ([2]; dose 0.1 mg/kg): 3.1 Vmax | Uterine EPO (Vmax) ([2]; dose 1 mg/kg): 2.6 Vmax | Uterine EPO (Vmax) ([2]; dose 10 mg/kg): 2.4 Vmax | inhibition in vivo at 0.1 mg/kg [3, 6]: 9.3% | inhibition in vivo at 1 mg/kg [3, 6]: 0.5% | inhibition in vivo at 10 mg/kg [3, 6]: 24%

CC(C)(C)C(=O)N1CCCCC1COc1ccc(C(=O)c2c(-c3ccc(O)cc3)sc3cc(O)ccc23)cc1 (stereo not shown) [Compound 22]
Uterine Weight (% inc. OVX) ([1]; dose 0.1 mg/kg): 1.9 % inc. OVX | Uterine Weight (% inc. OVX) ([1]; dose 1 mg/kg): 19.6 % inc. OVX | Uterine Weight (% inc. OVX) ([1]; dose 10 mg/kg): 46.9* % inc. OVX | Uterine EPO (Vmax) ([2]; dose 0.1 mg/kg): 3.5 Vmax | Uterine EPO (Vmax) ([2]; dose 1 mg/kg): 20.0 Vmax | Uterine EPO (Vmax) ([2]; dose 10 mg/kg): 69.5* Vmax | inhibition in vivo at 0.1 mg/kg [3, 6]: 22.1% | inhibition in vivo at 1 mg/kg [3, 6]: 36.2% | inhibition in vivo at 10 mg/kg [3, 6]: 71.5%

C#C[C@]1(O)CC[C@H]2[C@@H]3CCc4cc(O)ccc4[C@H]3CC[C@@]21C [ethynyl estradiol, 17α-Ethynyl estradiol, reference compound]
effect on uterine weight compared to ovariectomized animals (in words) ([1]; EE2 orally at 0.1 mg/Kg/day): substantially greater | Uterine Weight (% inc. OVX) ([1]; dose 0.1 mg/kg): 235.2* % inc. OVX | Uterine EPO (Vmax) ([2]; dose 0.1 mg/kg): 120.0* Vmax | eosinophil infiltration into the uterus, by eosinophil peroxidase activity (in words) ([2]; ovariectomized rats): substantial, expected increase | effect on serum cholesterol compared to ovariectomized control animals (in words) ([3]; EE2 orally at 0.1 mg/Kg/day): decrease in serum cholesterol | tibia density / bone loss after ovariectomy (in words) [5]: prevented this loss
